Patent publication US20200207989A1, “FLUORESCENT PROBE FOR ALDH3A1 DETECTION” (The University of Tokyo, priority 2016, published 2020)

Columns and labels:
ALDH1A3 [1] = molecular target: T1, ALDH1A3 (Homo sapiens, UniProt P47895); assay: Reactivity of probes to recombinant ALDH1A3 (UPLC/MS/MS); assay type: biochemical; conditions: 10-100 nM ALDH, 10-80 μM compound, Tris buffer pH 7.5, 30 minutes at 37° C., ◯/X not defined by a legend
T1 construct: purchased
T1 sequence (P47895 1-512): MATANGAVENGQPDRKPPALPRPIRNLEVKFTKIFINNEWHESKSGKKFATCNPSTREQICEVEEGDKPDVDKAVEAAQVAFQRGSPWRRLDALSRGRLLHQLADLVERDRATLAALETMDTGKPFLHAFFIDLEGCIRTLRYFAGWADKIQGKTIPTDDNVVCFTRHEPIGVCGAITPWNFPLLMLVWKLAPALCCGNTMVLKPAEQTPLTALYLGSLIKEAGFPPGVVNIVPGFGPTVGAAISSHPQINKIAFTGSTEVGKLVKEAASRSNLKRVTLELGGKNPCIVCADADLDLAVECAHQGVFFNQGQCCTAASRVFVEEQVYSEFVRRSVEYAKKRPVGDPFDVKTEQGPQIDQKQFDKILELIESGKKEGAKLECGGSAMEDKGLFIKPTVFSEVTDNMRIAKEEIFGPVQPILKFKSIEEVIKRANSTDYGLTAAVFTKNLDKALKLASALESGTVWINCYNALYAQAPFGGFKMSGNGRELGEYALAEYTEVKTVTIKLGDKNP
Protocol: (§1) Human recombinant ALDH1A1/1A3/3A1 was purchased, and 100 mM of KCL, 2 mM of DTT, 1 mM of NAD(P), 10-100 nM of each ALDH, and 10-80 μM of each compound were mixed in Tris buffer (100 mM, pH 7.5), reacted for 30 minutes at 37° C., an equal amount of acetonitrile added, and the reaction stopped. The reaction solution was analyzed by UPLC/MS/MS (Waters). The UPCL chromatogram was carried out over five minutes at a flow rate of 800 μL/min by a linear gradient from 5% acetonitrile 0.01 M ammonium formate/water to 95% acetonitrile 0.01 M ammonium formate/water.

ALDH3A1 = molecular target: T2, ALDH3A1 (Homo sapiens, UniProt P30838); assay: Reactivity of probes to recombinant ALDH3A1 (UPLC/MS/MS); assay type: biochemical; conditions: 10-100 nM ALDH, 10-80 μM compound, Tris buffer pH 7.5, 30 minutes at 37° C., ◯/X not defined by a legend
T2 construct: purchased
T2 sequence (P30838 1-453): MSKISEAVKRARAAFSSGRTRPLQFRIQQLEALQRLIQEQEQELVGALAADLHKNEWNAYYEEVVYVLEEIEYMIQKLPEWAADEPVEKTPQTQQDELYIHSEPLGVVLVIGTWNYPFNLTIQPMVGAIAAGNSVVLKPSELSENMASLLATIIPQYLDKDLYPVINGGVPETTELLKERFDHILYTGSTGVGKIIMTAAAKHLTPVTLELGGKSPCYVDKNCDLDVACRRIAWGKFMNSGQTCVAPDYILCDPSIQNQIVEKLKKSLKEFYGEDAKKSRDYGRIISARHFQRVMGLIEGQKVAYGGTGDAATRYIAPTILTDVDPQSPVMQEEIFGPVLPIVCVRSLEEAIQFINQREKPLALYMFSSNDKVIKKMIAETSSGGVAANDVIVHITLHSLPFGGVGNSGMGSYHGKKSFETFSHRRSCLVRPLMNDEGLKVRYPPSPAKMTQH
Protocol: as §1

ALDH1A1 = molecular target: T3, ALDH1A1 (Homo sapiens, UniProt P00352); assay: Kinetic characteristics (Michaelis-Menten Km, Kcat) with ALDH1A1; assay type: biochemical; conditions: five minutes at 37° C., Tris buffer pH 7.5
T3 construct: purchased
T3 sequence (P00352 1-501): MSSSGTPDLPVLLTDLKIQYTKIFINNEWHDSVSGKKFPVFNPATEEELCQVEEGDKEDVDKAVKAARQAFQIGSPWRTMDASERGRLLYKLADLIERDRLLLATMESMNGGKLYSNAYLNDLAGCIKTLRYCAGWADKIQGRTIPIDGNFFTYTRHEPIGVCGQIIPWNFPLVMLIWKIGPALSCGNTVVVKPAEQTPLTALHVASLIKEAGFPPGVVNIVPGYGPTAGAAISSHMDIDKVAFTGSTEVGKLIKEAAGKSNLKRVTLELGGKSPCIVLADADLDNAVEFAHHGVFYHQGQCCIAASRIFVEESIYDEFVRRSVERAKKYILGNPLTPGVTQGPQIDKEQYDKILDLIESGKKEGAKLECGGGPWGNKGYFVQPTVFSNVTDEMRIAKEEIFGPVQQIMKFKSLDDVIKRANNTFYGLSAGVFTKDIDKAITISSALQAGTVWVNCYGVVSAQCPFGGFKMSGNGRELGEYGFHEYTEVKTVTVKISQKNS
Protocol: as §1, with “formate/water. An aldehyde-form and carboxylic acid-form probe were detected by the absorbance at a wavelength of 504 nm, and m/z of the MS spectrum at each peak was confirmed to agree with the expected m/z.” for “formate/water.”
(§2) For the reaction, 100 mM of KCL, 2 mM of DTT, 1 mM of NAD(P), and five to six concentrations within the range of 10-100 nM of each ALDH and 0.1-80 μM of each probe were selected, mixed in Tris buffer (100 mM, pH 7.5), and reacted for five minutes at 37° C.; an equal amount of acetonitrile was added, and the reaction was stopped. Detection of the aldehyde-form/carboxylic acid-form probes was carried out using the same method as described above by UPLC/MS/MS. Km and Kcat were calculated by fitting the reaction rate at each probe concentration obtained to the Michaelis-Menten equation. A Kaleida Graph ver. 4.1 (Hulinks, Inc.) was used in fitting.

ALDH1A3 [2] = molecular target: T1, ALDH1A3; assay: Kinetic characteristics (Michaelis-Menten Km, Kcat) with ALDH1A3; assay type: biochemical; conditions: five minutes at 37° C., Tris buffer pH 7.5
Protocol: as §1, with “formate/water. An aldehyde-form and carboxylic acid-form probe were detected by the absorbance at a wavelength of 504 nm, and m/z of the MS spectrum at each peak was confirmed to agree with the expected m/z.” for “formate/water.”
as §2

OE21 cell line = assay: Cell imaging of OE21 cells against CB7 negative control; assay type: cell-based; conditions: probe 5: 40 μM, 90 minutes at 37° C., CB7 10 μM control
Protocol: 40 μM of probe 5 was added to culture medium (RPMI 1640, 10% FBS, 15 mM HEPES, phenol red-free). After culturing for 90 minutes at 37° C., the cells were washed using a chilled medium and examined under a confocal microscope. A sample with a specific ALDH3A1 inhibitor (1-[(4-fluorophenyl)sulfonyl]-2-methyl-1H-benzimidazole, CB7, 10 μM) added served as a negative control. Excitation was provided by a 488 nm laser, and observation was carried out at wavelengths of […] in detection.

Substance: N-(4-formylbenzyl)-3-(1,3-dimethyl-4,4-difluoro-4-bora-3a,4a-diaza-s-indacen-5-yl)-propionamide [Probe 1]
- Reactivity to ALDH1A3 (ALDH1A3 [1]): ◯
- Reactivity to ALDH1A3 (ALDH1A3 [1]; listed as Compound 1): reacted with all three of the isoforms tested
- Reactivity to ALDH3A1 (ALDH3A1): ◯
- Reactivity to ALDH3A1 (ALDH3A1; listed as Compound 1): reacted with all three of the isoforms tested
- Kcat ALDH1A1 (ALDH1A1): 1.36 ± 0.045 s⁻¹
- Km (ALDH1A1): < 0.2 µM
- Kcat ALDH1A3 (ALDH1A3 [2]): 0.029 ± 0.0015 s⁻¹
- Km (ALDH1A3 [2]): 1.64 ± 0.49 µM
- Brightness of cells in imaging compared to negative control (CB7) (OE21 cell line): no evident difference in brightness could be found in comparison to the negative control
